# Assay results taken from US6387934B1, “2-Cyano-3,5-dihydroxyhex-2-enecarboxamide derivatives” (Aventis Pharma Deutschland GmbH, priority 1996, dated 2002).
# Counter-ions that a name gives are not always drawn.
# Tests used:
# [1] = system: IL-1-induced chondrocytic chondrolysis; assay: Modulation of the IL-1-induced chondrocytic chondrolysis (chondrolysis compensation); type: cell-based, bulls; conditions: stimulation factor = proteoglycan content with active compound / IL-1-treated control; interleukin-1 for 8 days, 35S-sulfate incorporation 24 hours; factor >1 = stimulation
# Description: (§1) Cartilage cells can maintain their characteristic cartilage matrix metabolism ex vivo in suitable cell or tissue culture, i.e. the controlled synthesis and degradation of the matrix macromolecules, over a period of several weeks to months. These processes can be chemically influenced. […] In both assays, the stimulating action of the test substance is expressed by a stimulation factor which is calculated from the quotient of the specific proteoglycan content under the active compound condition divided by the proteoglycan content under the control condition. In Experiment A, the control condition is the untreated control group and in experimental procedure B this is the interleukin-1 (IL-1)-treated control group. A factor=1 can thus identify no action, a factor of >1 points to a stimulation and a factor of <1 to an inhibitory action.
# B) Modulation of the IL-1-induced Chondrocytic Chondrolysis (Chondrolysis Compensation)
# Cell preparation was carried out as described under A), if cartilage tissue explants are used these are added directly to the enriched culture medium described above after stamping out cartilage disks of 4 mm diameter and a depth which includes the entire cartilage layer. After adaptation for 5 days, interleukin-1 is added to the medium, 8 units/well for the cell culture, 20 units/well for the tissue culture, and, over the treatment period of 8 days, likewise added again every second day on changing the medium. At the end of the experiments, 1 μCi of Na2^35SO4/well is added and the mixture is incubated for 24 hours. After removing the supernatant, the remaining gels or explants are broken down in the microtiter plates by repeated deepfreezing and thawing and extracted with 8 M guanidine hydrochloride. After centrifugation, the supernatant is separated on a PD10 Sephadex column into free and incorporated sulfate and the radioactivity of the samples, which is a measure of the amount of proteoglycan newly formed, is determined in a β counter.
# [2] = system: chondrocytic proteoglycan metabolism; assay: Modulation of the chondrocytic proteoglycan metabolism (PG stimulation); type: cell-based, bulls; conditions: stimulation factor = proteoglycan content with active compound / untreated control, 10 μm test substance, 8 days, chondrocytes in agarose, Alcian Blue extinction at 610 nm, factor >1 = stimulation; for fold induction at 10 µM: Chondrocyte, 192 h
# Description: as §1
# A) Modulation of the chondrocytic proteoglycan metabolism (PG stimulation)
# Cartilage samples are taken under sterile conditions from fetlock joints of freshly slaughtered bulls, incubated with 1% strength pronase (Boehringer) solution in Ham's F12 medium (Serva) at 37° C. for 1 hour, and the enzyme solution is replaced by a 0.025% strength collagenase type A (Worthington) solution in medium and incubated overnight. After filtering through a 50 μm nylon filter, centrifugation, resuspension and vitality testing, a cell suspension of 4×10^6 cells/ml of medium, enriched with 20% fetal calf serum, is prepared and mixed at approximately 38° C. with 2% strength low-melting agarose (Seplaque) in the ratio 1:1 and 0.1 ml of this is pipetted into each well of a 24 well microtiter plate. After gelling, the samples are covered with a layer of 0.5 ml/well of medium, which is enriched with 5% serum, 25 μm/ml of ascorbic acid, and in groups of up to 6-8 wells with 10 μm of the test substance. The medium in a constant composition is renewed every second day for a treatment period of 8 days. At the end of the treatment, washing is carried out with medium, 1 ml of a buffered (pH 5.6) 1% strength Alcian Blue (Sigma) solution, enriched with 25% strength glutaraldehyde in the ratio 7:1, per well is added and the mixture is incubated for 48 hours. After washing and differentiating with 3% strength acetic acid, dehydration is carried out up to 70% strength ethanol content by means of the rising alcohol series, and then the bound dye is extracted at 4° C. for 24 hours using 8 M guanidine hydrochloride. The stoichiometric binding of the Alcian Blue to the chondroitin sulfate side chains of the proteoglycans allows a quantification of the enriched matrix via the determination of the extinction of the dye solution at 610 nm.
Structure (SMILES),melting point [°C],Chondrolysis compensation [1],fold induction at 10 µM [2],PG stimulation [2]
"C[C@@H](O)C/C(O)=C(\C#N)C(=O)Nc1ccc(C(F)(F)F)cc1 (as salt: salt) [Example 10a, N-(4-Trifluoromethylphenyl)-2-cyano-3,5-dihydroxyhex-2-enecarboxamide Lysinium Salt, R Isomer]",156,–,–,–
"C[C@H](O)C/C(O)=C(\C#N)C(=O)Nc1ccc(C(F)(F)F)cc1 (as salt: salt) [Example 10b, N-(4-Trifluormethylphenyl)-2-cyano-3,5-dihydroxyhex-2-enecarboxamide Lysinium Salt, S-isomer]",157,–,–,–
"CC(O)C/C(O)=C(\C#N)C(=O)Nc1ccc(C(F)(F)F)cc1 (centres unmarked) (as salt: salt) [Example 37, N-(4-Trifluoromethylphenyl)-2-cyano-3,5-dihydroxyhex-2-carboxamide Lysinium Salt]",135 to 138,–,–,–
"CC(C)(O)C/C(O)=C(\C#N)C(=O)Nc1ccccc1 [Example 1, N-(Phenyl)-2-cyano-3,5-dihydroxy-5-methylhex-2-enecarboxamide]",103,1.4,–,–
CC(C)(O)C/C(O)=C(\C#N)C(=O)Nc1ccc(C(F)(F)F)cc1 [Example 2],155,1.9,1.8,–
CC(C)(O)C/C(O)=C(\C#N)C(=O)NCc1ccccc1 [Example 3],–,1.5,–,–
CC(C)(O)C/C(O)=C(\C#N)C(=O)NCCc1ccccc1 [Example 4],81,1.5,–,–
CC(O)C/C(O)=C(\C#N)C(=O)Nc1ccccc1 (centres unmarked) [Example 5],101,1.8,–,–
CC(O)C/C(O)=C(\C#N)C(=O)NCc1ccccc1 (centres unmarked) [Example 6],–,1.9,–,–
CC(O)C/C(O)=C(\C#N)C(=O)NCCc1ccccc1 (centres unmarked) [Example 7],91,1.3,–,–
CC(O)C/C(O)=C(\C#N)C(=O)Nc1ccc(Cl)cc1 (centres unmarked) [Example 8],152,2.1,–,–
CC(O)C/C(O)=C(\C#N)C(=O)Nc1ccc(C(F)(F)F)cc1 (centres unmarked) [Example 9],–,1.6,1.5,–
"C[C@@H](O)C/C(O)=C(\C#N)C(=O)Nc1ccc(C(F)(F)F)cc1 [Example 10a, N-(4-Trifluoromethylphenyl)-2-cyano-3,5-dihydroxyhex-2-enecarboxamide Lysinium Salt, R Isomer]",–,1.1,–,–
"C[C@H](O)C/C(O)=C(\C#N)C(=O)Nc1ccc(C(F)(F)F)cc1 [Example 10b, N-(4-Trifluormethylphenyl)-2-cyano-3,5-dihydroxyhex-2-enecarboxamide Lysinium Salt, S-isomer]",–,1.7,–,–
Cc1ccc(C(O)C/C(O)=C(\C#N)C(=O)Nc2ccc(C(F)(F)F)cc2)cc1 (centres unmarked) [Example 11],170 to 171,–,–,–
N#C/C(C(=O)Nc1ccc(Cl)cc1)=C(/O)CC(O)c1ccccc1 (centres unmarked) [Example 12],178,–,–,–
Cc1cc(NC(=O)/C(C#N)=C(\O)CC(O)c2ccccc2)ccc1Cl (centres unmarked) [Example 13],165,1.1,–,–
Cc1ccc(C(O)C/C(O)=C(\C#N)C(=O)Nc2ccc(C(F)(F)F)cc2)cc1 (centres unmarked) [Example 14],180,–,–,–
N#C/C(C(=O)Nc1ccc(C(F)(F)F)cc1)=C(/O)CC(O)c1ccc(OCc2ccccc2)cc1 (centres unmarked) [Example 15],–,1.2,–,–
N#C/C(C(=O)Nc1ccc(C(F)(F)F)cc1)=C(/O)CC(O)c1ccc(C#N)cc1 (centres unmarked) [Example 16],180,1.1,–,–
N#C/C(C(=O)Nc1ccc(C(F)(F)F)cc1)=C(/O)CC(O)c1ccc(C(F)(F)F)cc1 (centres unmarked) [Example 17],178,–,–,–

Structure (SMILES),melting point [°C],Chondrolysis compensation [1],fold induction at 10 µM [2],PG stimulation [2]
COc1cc(C(O)C/C(O)=C(\C#N)C(=O)Nc2ccc(C(F)(F)F)cc2)cc(OC)c1OC (centres unmarked) [Example 18],154,1.2,1.1,–
N#C/C(C(=O)Nc1ccc(C(F)(F)F)cc1)=C(/O)CC(O)c1ccc2c(c1)OCO2 (centres unmarked) [Example 19],–,1.3,1.1,–
N#C/C(C(=O)Nc1ccc(C(F)(F)F)cc1)=C(/O)CC(O)c1ccncc1 (centres unmarked) [Example 20],203,–,–,–
N#C/C(C(=O)Nc1ccc(C(F)(F)F)cc1)=C(/O)CC(O)c1cccnc1 (centres unmarked) [Example 21],203,1.3,1.2,–
N#C/C(C(=O)Nc1ccc(C(F)(F)F)cc1)=C(/O)CC(O)c1ccco1 (centres unmarked) [Example 22],–,1.9,1.1,–
N#C/C(C(=O)Nc1ccc(C(F)(F)F)cc1)=C(/O)CC(O)c1ccoc1 (centres unmarked) [Example 23],146,1.9,–,–
N#C/C(C(=O)Nc1ccc(C(F)(F)F)cc1)=C(/O)CC(O)c1cccs1 (centres unmarked) [Example 24],–,1.9,–,–
N#C/C(C(=O)Nc1ccc(C(F)(F)F)cc1)=C(/O)CC(O)/C=C/c1ccccc1 (centres unmarked) [Example 25],168 to 172,–,–,–
N#C/C(C(=O)Nc1ccc(C(F)(F)F)cc1)=C(/O)CC(O)C#Cc1ccccc1 (centres unmarked) [Example 26],168,1.9,–,–
C=CC(O)C/C(O)=C(\C#N)C(=O)Nc1ccc(C(F)(F)F)cc1 (centres unmarked) [Example 27],141,1.6,1.7,–
C=C(C)C(O)C/C(O)=C(\C#N)C(=O)Nc1ccc(C(F)(F)F)cc1 (centres unmarked) [Example 28],–,–,1.1,–
CC(C)=CC(O)C/C(O)=C(\C#N)C(=O)Nc1ccc(C(F)(F)F)cc1 (centres unmarked) [Example 29],–,1.7,1.1,–
CC(C)=CCC/C(C)=C/C(O)C/C(O)=C(\C#N)C(=O)Nc1ccc(C(F)(F)F)cc1 (centres unmarked) [Example 30],114 to 116,1.3,–,–
CCCCC(C)(O)C/C(O)=C(\C#N)C(=O)Nc1ccc(C(F)(F)F)cc1 (centres unmarked) [Example 31],–,1.6,–,–
CC(O)(C/C(O)=C(\C#N)C(=O)Nc1ccc(C(F)(F)F)cc1)C1CC1 (centres unmarked) [Example 32],–,1.8,1.1,–
N#C/C(C(=O)Nc1ccc(C(F)(F)F)cc1)=C(/O)CC(O)C1CC1 (centres unmarked) [Example 33],–,1.9,–,–
N#C/C(C(=O)Nc1ccc(C(F)(F)F)cc1)=C(/O)CC(=O)O [Example 36],–,1.8,–,–
"CC(O)C/C(O)=C(\C#N)C(=O)Nc1ccc(C(F)(F)F)cc1 (centres unmarked) [Example 37, N-(4-Trifluoromethylphenyl)-2-cyano-3,5-dihydroxyhex-2-carboxamide Lysinium Salt]",–,1.9,–,1.1
CC(C)(O)C/C(O)=C(\C#N)C(=O)Nc1ccc(C(F)(F)F)cc1 [Example 38],145 to 148,1.8,–,–
C=CC(O)C/C(O)=C(\C#N)C(=O)Nc1ccc(C(F)(F)F)cc1 (centres unmarked) [Example 39],133 to 135,1.6,–,1.7
